This note sets out measurements from patent publication US20260206755A1, “COMPOUNDS AND COMPOSITIONS HAVING KNOCK-DOWN OR BLOOD FEED INHIBITION ACTIVITY AGAINST INSECT PESTS” (priority 2017, published 2026).

Molecules are shown by their SMILES. Like-named read-outs stand apart in the source and are kept apart here.

This data set has as its system Anopheles stephensi. The data set can be described thus: Anopheles stephensi treated well plate contact test: knockdown and mortality. It counts as in vivo. Particulars: for mortality at 0.2 ppm / pest or weed control at 0.2 ppm: test compound 0.2 ppm; for mortality at 2 ppm / pest or weed control at 2 ppm: test compound 2 ppm; for mortality at 20 ppm / pest or weed control at 20 ppm: test compound 20 ppm; for mortality at 200 ppm / pest or weed control at 200 ppm: test compound 200 ppm; for pest or weed control at 200 ppm: adult females. The protocol: Examples Anopheles stephensi (Indian Malaria Mosquito)
The individual wells of twelve (12) well tissue culture plates were treated with 200 μl of an ethanol solution containing a test compound of Table 1 or Table 2 at a defined concentration and repeated with also 200 μl of an ethanol solution containing in addition 2 ppm TFNA-AM. Once the deposits were dry, five non-blood fed adult female Anopheles stephensi (between two to five day old) were added to each well, and sustained with a 10% sucrose solution in a cotton wool plug. Assessment of the knockdown after 1 hour, and mortality after 24 and 48 hours was carried out.
In case of multiple tests, the mean value is reported.

The mark [1] stands for this setting: Anopheles stephensi, without TFNA-AM, after 24 hours, read-out: mortality % 24, without TFNA-AM.
Setting [2] is: Anopheles stephensi, without TFNA-AM, after 48 hours, read-out: mortality % 48, without TFNA-AM.
[3] abbreviates: Anopheles stephensi, without TFNA-AM, knockdown after 1 hour, read-out: Knock Down, without TFNA-AM.
[4] abbreviates: test compound 0.2 ppm plus 2 ppm TFNA-AM, after 48 hours.
Setting [5] is: test compound 0.2 ppm plus 2 ppm TFNA-AM, knockdown after 1 hour.
The mark [6] stands for this setting: test compound 2 ppm plus 2 ppm TFNA-AM, after 24 hours.
The mark [7] stands for this setting: test compound 2 ppm plus 2 ppm TFNA-AM, after 48 hours.
The mark [8] stands for this setting: test compound 2 ppm plus 2 ppm TFNA-AM, knockdown after 1 hour.
The mark [9] stands for this setting: test compound 20 ppm plus 2 ppm TFNA-AM, after 24 hours.
[10] abbreviates: test compound 20 ppm plus 2 ppm TFNA-AM, after 48 hours.
The mark [11] stands for this setting: test compound 20 ppm plus 2 ppm TFNA-AM, knockdown after 1 hour.
Where [12] appears, read: test compound 200 ppm plus 2 ppm TFNA-AM, after 24 hours.
Where [13] appears, read: test compound 200 ppm plus 2 ppm TFNA-AM, after 48 hours.
Setting [14] is: test compound 200 ppm plus 2 ppm TFNA-AM, knockdown after 1 hour.
[15] abbreviates: test compound 0.2 ppm plus 2 ppm TFNA-AM, after 24 hours.

In the case of `CO/C=C(/C(=O)OC)c1ccccc1Oc1ncc(C(F)(F)F)s1` [Compound 54], the mortality at 0.2 ppm under setting [1] came out at 0% and the mortality at 0.2 ppm under setting [2] was determined as 0%. Under setting [3], the pest or weed control at 0.2 ppm was determined as 0%. In addition, the mortality at 2 ppm stood at 60% under setting [1] and 40% under setting [2]. In addition, the pest or weed control at 2 ppm under setting [3] came to 0%. Besides, the mortality at 20 ppm worked out at 100% under setting [1] and 100% under setting [2]. For the same molecule, under setting [3], the pest or weed control at 20 ppm came out at 100%. For the same molecule, the mortality at 200 ppm by setting is: under setting [1], 100%; under setting [2], 100%. Under setting [3], the pest or weed control at 200 ppm came out at 100%. The “mortality % 48, with TFNA-AM” value runs as follows: under setting [4], 10%; under setting [7], 100%; under setting [10], 100%; under setting [13], 100%. Moreover, the “Knock Down, with TFNA-AM” value turned out to be 90% under setting [5], 100% under setting [8], 100% under setting [11] and 100% under setting [14]. In addition, the “mortality % 24, with TFNA-AM” value under setting [6] was 100%; the “mortality % 24, with TFNA-AM” value under setting [9] amounted to 100%; the “mortality % 24, with TFNA-AM” value under setting [12] was 100%.

With `CC1(C)C(C=C(Cl)Cl)C1C(=O)OC(C#N)c1cccc(Oc2ccccc2)c1` (stereo not shown) [Cypermethrin], the mortality at 0.02 ppm is, setting by setting: (Anopheles stephensi, test compound 0.02 ppm, without TFNA-AM, after 24 hours, read-out: mortality % 24, without TFNA-AM) 0%; (Anopheles stephensi, test compound 0.02 ppm, without TFNA-AM, after 48 hours, read-out: mortality % 48, without TFNA-AM) 20%. In addition, the pest or weed control at 0.02 ppm (Anopheles stephensi, test compound 0.02 ppm, without TFNA-AM, knockdown after 1 hour, read-out: Knock Down, without TFNA-AM) turned out to be 0%. The mortality at 0.2 ppm under setting [1] was 0% and the mortality at 0.2 ppm under setting [2] was 40%. Besides, the pest or weed control at 0.2 ppm under setting [3] was 0%. Besides, the mortality at 2 ppm runs as follows: under setting [1], 100%; under setting [2], 100%. Further, the pest or weed control at 2 ppm under setting [3] was determined as 100%. In addition, the mortality at 20 ppm runs as follows: under setting [1], 100%; under setting [2], 100%. Moreover, the pest or weed control at 20 ppm under setting [3] is 100%. In addition, the “mortality % 24, with TFNA-AM” value runs as follows: (test compound 0.02 ppm plus 2 ppm TFNA-AM, after 24 hours) 80%; under setting [15], 100%; under setting [6], 100%; under setting [9], 100%. The “Knock Down, with TFNA-AM” value is listed as 100% (test compound 0.02 ppm plus 2 ppm TFNA-AM, knockdown after 1 hour); 100% under setting [5]; 100% under setting [8]; 100% under setting [11]. The “mortality % 48, with TFNA-AM” value by setting is: under setting [4], 100%; under setting [7], 100%; under setting [10], 100%.

`Nc1nc(N)nc(NC2CC2)n1` [Cyromazine]: the mortality at 0.2 ppm by setting is: under setting [1], 0%; under setting [2], 0%. For the same molecule, under setting [3], the pest or weed control at 0.2 ppm came to 0%. The mortality at 2 ppm turned out to be 0% under setting [1] and 0% under setting [2]. For the same molecule, the pest or weed control at 2 ppm under setting [3] is 0%. The mortality at 20 ppm under setting [1] amounted to 0% and the mortality at 20 ppm under setting [2] amounted to 0%. Moreover, the pest or weed control at 20 ppm under setting [3] stood at 0%. Besides, the mortality at 200 ppm was determined as 0% under setting [1] and 0% under setting [2]. In addition, the pest or weed control at 200 ppm under setting [3] worked out at 0%. Besides, the “mortality % 24, with TFNA-AM” value reads like this: under setting [15], 20%; under setting [6], 20%; under setting [9], 60%; under setting [12], 80%. The “mortality % 48, with TFNA-AM” value came out at 0% under setting [4], 0% under setting [7], 40% under setting [10] and 40% under setting [13]. Also, the “Knock Down, with TFNA-AM” value by setting is: under setting [5], 100%; under setting [8], 100%; under setting [11], 100%; under setting [14], 100%.

Regarding `CC(C)c1cc(Oc2ccccc2)cc(C(C)C)c1NC(=S)NC(C)(C)C` [Diafenthiuron], the mortality at 0.2 ppm runs as follows: under setting [1], 0%; under setting [2], 20%. The pest or weed control at 0.2 ppm under setting [3] was determined as 60%. The mortality at 2 ppm under setting [1] was determined as 0% and the mortality at 2 ppm under setting [2] is 20%. In addition, the pest or weed control at 2 ppm under setting [3] came to 100%. Moreover, the mortality at 20 ppm runs as follows: under setting [1], 0%; under setting [2], 0%. Moreover, the pest or weed control at 20 ppm under setting [3] worked out at 100%. Also, the mortality at 200 ppm runs as follows: under setting [1], 100%; under setting [2], 100%. The pest or weed control at 200 ppm under setting [3] was found to be 100%. Besides, the “mortality % 24, with TFNA-AM” value by setting is: under setting [15], 60%; under setting [6], 100%; under setting [9], 100%; under setting [12], 100%. For the same molecule, the “mortality % 48, with TFNA-AM” value came out at 0% under setting [4], 60% under setting [7], 80% under setting [10] and 100% under setting [13]. Further, the “Knock Down, with TFNA-AM” value under setting [5] is reported as 100%; the “Knock Down, with TFNA-AM” value under setting [8] is recorded as 100%; the “Knock Down, with TFNA-AM” value under setting [11] was 100%; the “Knock Down, with TFNA-AM” value under setting [14] worked out at 100%.

Take `OC(c1ccc(Cl)cc1)(c1ccc(Cl)cc1)C(Cl)(Cl)Cl` [Dicofol]: the mortality at 0.2 ppm runs as follows: under setting [1], 0%; under setting [2], 0%. Under setting [3], the pest or weed control at 0.2 ppm stood at 0%. Further, the mortality at 2 ppm by setting is: under setting [1], 0%; under setting [2], 0%. Besides, under setting [3], the pest or weed control at 2 ppm worked out at 0%. In addition, the mortality at 20 ppm reads like this: under setting [1], 0%; under setting [2], 0%. Besides, under setting [3], the pest or weed control at 20 ppm was found to be 0%. Besides, the mortality at 200 ppm came to 0% under setting [1] and 0% under setting [2]. For the same molecule, the pest or weed control at 200 ppm under setting [3] is 0%. Besides, the “mortality % 24, with TFNA-AM” value is, setting by setting: under setting [15], 20%; under setting [6], 60%; under setting [9], 80%; under setting [12], 100%. In addition, the “mortality % 48, with TFNA-AM” value is, setting by setting: under setting [4], 0%; under setting [7], 20%; under setting [10], 100%; under setting [13], 100%. Moreover, the “Knock Down, with TFNA-AM” value runs as follows: under setting [5], 100%; under setting [8], 100%; under setting [11], 100%; under setting [14], 100%.

For `CCC(Nc1ncnc(C)c1Cl)c1ccc(OC(F)F)cc1` (stereo not shown) [Diflumetorim], the mortality at 0.2 ppm by setting is: under setting [1], 0%; under setting [2], 0%. Besides, the pest or weed control at 0.2 ppm under setting [3] came out at 0%. The mortality at 2 ppm is, setting by setting: under setting [1], 60%; under setting [2], 60%. The pest or weed control at 2 ppm under setting [3] stood at 30%. In addition, the mortality at 20 ppm came to 100% under setting [1] and 100% under setting [2]. Besides, the pest or weed control at 20 ppm under setting [3] amounted to 100%. Also, the mortality at 200 ppm turned out to be 100% under setting [1] and 100% under setting [2]. Further, the pest or weed control at 200 ppm under setting [3] amounted to 100%. Further, the “mortality % 24, with TFNA-AM” value was 20% under setting [15], 90% under setting [6], 100% under setting [9] and 100% under setting [12]. Moreover, the “mortality % 48, with TFNA-AM” value turned out to be 10% under setting [4], 90% under setting [7], 100% under setting [10] and 100% under setting [13]. Besides, the “Knock Down, with TFNA-AM” value reads like this: under setting [5], 100%; under setting [8], 100%; under setting [11], 100%; under setting [14], 100%.

As usually defined, the mortality is the share of the test organisms that died.
